Measurements as given in patent publication US20020187944A1, “Inhibition of human immunodeficiency virus reverse transcriptase” (priority 2001, published 2002).

How the values were obtained:
[1] = gastric acid; stated without a test; cited from earlier work
[2] = biological target: T1, HIV-1 reverse transcriptase (Human immunodeficiency virus type 1 group M subtype B, UniProt P04585); assay: Inhibition of HIV reverse transcriptase, 3H-TTP incorporation on calf thymus DNA template; format: biochemical; details: for HIV RT Radioactivity: 60 minutes at 37° C.
T1 construct: 0.01 μg HIV-1 reverse transcriptase
Method: (§1) Inhibition of HIV reverse transcriptase (RT) was studied in a one milliliter reaction mixture containing 12.5 μmol Tris-HCl (pH 8.3), 3 μmol MgCl2, 10 μmol KCl, 2.5 μmol dithiothreitol, 0.04 μmol of each dNTP, 1 μCi ^3H-TTP (50 Ci/mmol), 10 μl of DMSO containing 0-320 μg/ml of 9-O-methyl oxime erythromycin A (EMO), and 0.01 μg HIV-1 reverse transcriptase. DNA template (0.01 μg) from calf thymus was used as the substrate in the reaction. After 60 minutes incubation at 37° C., samples from the reaction were pipetted on 3 MM filter paper discs (Whatman), which were washed 5 times in cold trichloroacetic acid (5%) containing sodium pyrophosphate (0.01 M). After drying, the discs were counted in a toluene scintillation solution using a Beckman scintillation spectrometer. Reactions with DNA-dependent DNA polymerase (DNA pol I, GibcoBRL) or DNA-dependent RNA polymerase from E. coli were carried out as described above, except that ^3H-UTP replaced ^3H-TTP where appropriate.

[3] = biological target: T2, DNA-dependent DNA polymerase (DNA pol I, GibcoBRL) (Escherichia coli, UniProt P00582); assay: DNA-dependent DNA polymerase reaction, radiolabel incorporation; format: biochemical, E. coli
T2 construct: purchased GibcoBRL
T2 sequence (P00582 whole entry): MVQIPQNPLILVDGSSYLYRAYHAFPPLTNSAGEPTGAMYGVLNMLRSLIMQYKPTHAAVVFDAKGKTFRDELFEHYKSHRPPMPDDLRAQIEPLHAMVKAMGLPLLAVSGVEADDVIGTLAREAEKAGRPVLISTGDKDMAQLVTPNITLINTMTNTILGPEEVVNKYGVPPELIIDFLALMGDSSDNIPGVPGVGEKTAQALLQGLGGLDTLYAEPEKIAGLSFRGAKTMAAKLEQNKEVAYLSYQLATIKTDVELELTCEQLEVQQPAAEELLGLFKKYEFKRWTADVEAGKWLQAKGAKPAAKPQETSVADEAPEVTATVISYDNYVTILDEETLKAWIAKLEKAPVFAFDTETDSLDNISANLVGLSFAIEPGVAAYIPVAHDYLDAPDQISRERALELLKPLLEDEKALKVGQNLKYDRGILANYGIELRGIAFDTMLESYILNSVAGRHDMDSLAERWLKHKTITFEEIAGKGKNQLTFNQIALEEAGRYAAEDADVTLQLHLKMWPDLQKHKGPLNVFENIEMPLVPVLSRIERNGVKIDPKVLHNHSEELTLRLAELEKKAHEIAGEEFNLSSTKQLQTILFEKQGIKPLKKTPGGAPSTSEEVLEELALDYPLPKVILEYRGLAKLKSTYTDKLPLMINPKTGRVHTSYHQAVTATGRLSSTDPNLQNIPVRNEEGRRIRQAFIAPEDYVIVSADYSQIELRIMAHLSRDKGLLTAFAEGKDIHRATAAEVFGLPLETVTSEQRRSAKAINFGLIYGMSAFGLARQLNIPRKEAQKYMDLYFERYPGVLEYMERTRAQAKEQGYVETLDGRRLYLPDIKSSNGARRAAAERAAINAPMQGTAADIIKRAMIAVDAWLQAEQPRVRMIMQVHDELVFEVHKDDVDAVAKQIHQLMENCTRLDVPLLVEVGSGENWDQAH
Method: as §1

[4] = biological target: DNA-dependent RNA polymerase from E. coli (Escherichia coli, UniProt P0A8T7+P0A8V2); assay: DNA-dependent RNA polymerase reaction, 3H-UTP incorporation; format: biochemical
Chain of DNA-dependent RNA polymerase from E. coli (P0A8V2 whole entry): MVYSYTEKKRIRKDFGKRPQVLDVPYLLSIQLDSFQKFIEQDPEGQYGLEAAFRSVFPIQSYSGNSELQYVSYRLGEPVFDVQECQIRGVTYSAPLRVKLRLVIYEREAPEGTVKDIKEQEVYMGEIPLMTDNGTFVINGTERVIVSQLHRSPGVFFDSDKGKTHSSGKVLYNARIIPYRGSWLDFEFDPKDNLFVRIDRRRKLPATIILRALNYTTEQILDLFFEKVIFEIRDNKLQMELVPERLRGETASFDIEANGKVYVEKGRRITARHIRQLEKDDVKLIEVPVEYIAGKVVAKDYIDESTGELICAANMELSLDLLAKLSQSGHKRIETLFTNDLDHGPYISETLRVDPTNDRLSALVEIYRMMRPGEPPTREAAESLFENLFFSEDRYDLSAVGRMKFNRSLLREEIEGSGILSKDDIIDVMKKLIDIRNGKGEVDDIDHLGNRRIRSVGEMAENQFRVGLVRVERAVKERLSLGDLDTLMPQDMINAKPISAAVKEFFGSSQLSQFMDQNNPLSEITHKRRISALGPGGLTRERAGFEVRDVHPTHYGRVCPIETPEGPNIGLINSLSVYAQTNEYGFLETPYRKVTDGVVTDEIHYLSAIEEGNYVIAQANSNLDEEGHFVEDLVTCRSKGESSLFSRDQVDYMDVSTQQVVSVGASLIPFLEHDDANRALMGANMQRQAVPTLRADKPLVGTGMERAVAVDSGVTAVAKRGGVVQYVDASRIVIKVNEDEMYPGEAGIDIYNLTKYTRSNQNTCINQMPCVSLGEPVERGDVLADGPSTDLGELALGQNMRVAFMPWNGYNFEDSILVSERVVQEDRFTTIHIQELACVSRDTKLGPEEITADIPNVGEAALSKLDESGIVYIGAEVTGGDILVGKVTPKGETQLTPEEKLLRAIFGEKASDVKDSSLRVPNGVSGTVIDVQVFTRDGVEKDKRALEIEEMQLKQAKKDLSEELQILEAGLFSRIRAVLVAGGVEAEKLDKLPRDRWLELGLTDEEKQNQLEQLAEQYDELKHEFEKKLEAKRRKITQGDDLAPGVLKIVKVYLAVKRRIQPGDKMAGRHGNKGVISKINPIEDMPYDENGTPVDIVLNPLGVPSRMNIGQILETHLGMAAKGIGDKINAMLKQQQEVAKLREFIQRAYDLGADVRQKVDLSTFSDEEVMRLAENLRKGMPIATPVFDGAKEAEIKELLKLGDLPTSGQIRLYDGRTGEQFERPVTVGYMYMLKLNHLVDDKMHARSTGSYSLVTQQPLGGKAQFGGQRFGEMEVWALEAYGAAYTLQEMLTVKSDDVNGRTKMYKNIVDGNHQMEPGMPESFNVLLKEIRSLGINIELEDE
Chain of DNA-dependent RNA polymerase from E. coli (P0A7Z4 whole entry, further chain): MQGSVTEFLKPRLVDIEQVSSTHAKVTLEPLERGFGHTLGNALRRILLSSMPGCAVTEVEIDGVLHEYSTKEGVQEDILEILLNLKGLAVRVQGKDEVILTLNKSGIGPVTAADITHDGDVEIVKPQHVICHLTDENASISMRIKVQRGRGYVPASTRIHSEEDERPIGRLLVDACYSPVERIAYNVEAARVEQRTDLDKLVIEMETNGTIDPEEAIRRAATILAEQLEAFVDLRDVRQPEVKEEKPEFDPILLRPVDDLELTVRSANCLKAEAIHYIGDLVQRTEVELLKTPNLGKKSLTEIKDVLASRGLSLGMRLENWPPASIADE
Chain of DNA-dependent RNA polymerase from E. coli (P0A800 whole entry, further chain): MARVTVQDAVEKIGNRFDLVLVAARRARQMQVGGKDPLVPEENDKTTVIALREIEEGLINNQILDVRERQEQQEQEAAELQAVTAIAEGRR
Chain of DNA-dependent RNA polymerase from E. coli (P0A8T7 whole entry): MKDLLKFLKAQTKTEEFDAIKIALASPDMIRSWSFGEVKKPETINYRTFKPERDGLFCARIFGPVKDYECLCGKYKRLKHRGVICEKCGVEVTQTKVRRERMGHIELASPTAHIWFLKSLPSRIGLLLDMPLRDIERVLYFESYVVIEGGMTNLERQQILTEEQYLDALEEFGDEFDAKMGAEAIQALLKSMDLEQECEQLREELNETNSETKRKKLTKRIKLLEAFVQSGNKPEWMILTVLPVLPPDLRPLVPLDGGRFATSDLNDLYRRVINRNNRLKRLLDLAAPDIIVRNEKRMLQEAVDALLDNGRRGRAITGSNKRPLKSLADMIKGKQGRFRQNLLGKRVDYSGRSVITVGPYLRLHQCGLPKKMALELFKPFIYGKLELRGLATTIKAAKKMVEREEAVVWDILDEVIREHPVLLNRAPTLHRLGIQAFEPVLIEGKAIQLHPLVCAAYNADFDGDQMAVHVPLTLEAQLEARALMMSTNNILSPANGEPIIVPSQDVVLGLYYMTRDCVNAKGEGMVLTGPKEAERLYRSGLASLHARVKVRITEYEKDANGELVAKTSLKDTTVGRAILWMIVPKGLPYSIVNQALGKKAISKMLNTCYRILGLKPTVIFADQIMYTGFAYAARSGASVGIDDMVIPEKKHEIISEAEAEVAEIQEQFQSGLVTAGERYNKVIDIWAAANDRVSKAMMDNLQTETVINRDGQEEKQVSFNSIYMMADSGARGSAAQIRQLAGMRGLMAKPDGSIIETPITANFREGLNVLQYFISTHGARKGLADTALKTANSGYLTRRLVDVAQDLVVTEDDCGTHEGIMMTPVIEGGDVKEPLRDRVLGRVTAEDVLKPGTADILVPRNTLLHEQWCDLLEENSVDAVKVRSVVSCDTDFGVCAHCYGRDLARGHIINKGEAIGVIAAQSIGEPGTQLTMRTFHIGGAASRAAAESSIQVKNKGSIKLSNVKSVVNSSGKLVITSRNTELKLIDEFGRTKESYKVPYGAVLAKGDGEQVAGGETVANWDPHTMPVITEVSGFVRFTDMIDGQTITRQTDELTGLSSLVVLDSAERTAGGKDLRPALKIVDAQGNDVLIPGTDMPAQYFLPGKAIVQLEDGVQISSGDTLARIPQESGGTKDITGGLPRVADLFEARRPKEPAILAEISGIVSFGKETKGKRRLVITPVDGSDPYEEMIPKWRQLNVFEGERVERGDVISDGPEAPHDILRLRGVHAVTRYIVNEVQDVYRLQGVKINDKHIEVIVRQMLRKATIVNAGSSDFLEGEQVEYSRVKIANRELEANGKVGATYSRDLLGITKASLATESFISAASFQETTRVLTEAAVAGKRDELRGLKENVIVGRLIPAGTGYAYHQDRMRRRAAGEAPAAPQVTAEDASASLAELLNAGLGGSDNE
Method: as §1

SMILES: CC[C@H]1OC(=O)[C@H](C)[C@@H](O[C@H]2C[C@@](C)(OC)[C@@H](O)[C@H](C)O2)[C@H](C)[C@@H](O[C@@H]2O[C@H](C)C[C@H](N(C)C)[C@H]2O)[C@](C)(O)C[C@@H](C)C(=O)[C@H](C)[C@@H](O)[C@]1(C)O [Erythromycin A, erythromycin A]
- acid stability [1]: acid labile

SMILES: CC[C@H]1OC(=O)[C@H](C)[C@@H](O[C@H]2C[C@@](C)(OC)[C@@H](O)[C@H](C)O2)[C@H](C)[C@@H](O[C@@H]2O[C@H](C)C[C@H](N(C)C)[C@H]2O)[C@](C)(O)C[C@@H](C)/C(=N\OC)[C@H](C)[C@@H](O)[C@]1(C)O [EMO, 9-O-methyl oxime erythromycin A]
- HIV RT % Inhibition ([2]; [EMO] 20 μg/ml): 0.8%
- HIV RT Radioactivity ([2]; [EMO] 20 μg/ml): 8490 cpm
- HIV RT % Inhibition ([2]; [EMO] 40 μg/ml): −0.5%
- HIV RT Radioactivity ([2]; [EMO] 40 μg/ml): 8600 cpm
- HIV RT % Inhibition ([2]; [EMO] 80 μg/ml): 20%
- HIV RT Radioactivity ([2]; [EMO] 80 μg/ml): 6850 cpm
- HIV RT % Inhibition ([2]; [EMO] 160 μg/ml): 81%
- HIV RT Radioactivity ([2]; [EMO] 160 μg/ml): 1625 cpm
- HIV RT % Inhibition ([2]; [EMO] 320 μg/ml): 85%
- HIV RT Radioactivity ([2]; [EMO] 320 μg/ml): 1287 cpm
- DNA-dependent DNA polymerase % Inhibition ([3]; [EMO] 80 μg/ml): −2%
- DNA-dependent DNA polymerase Radioactivity ([3]; [EMO] 80 μg/ml): 12,800 cpm
- DNA-dependent DNA polymerase % Inhibition ([3]; [EMO] 160 μg/ml): 1%
- DNA-dependent DNA polymerase Radioactivity ([3]; [EMO] 160 μg/ml): 12,400 cpm
- DNA-dependent DNA polymerase % Inhibition ([3]; [EMO] 320 μg/ml): 0%
- DNA-dependent DNA polymerase Radioactivity ([3]; [EMO] 320 μg/ml): 12,600 cpm
- DNA-dependent RNA polymerase % Inhibition ([4]; [EMO] 80 μg/ml): −0.2%
- DNA-dependent RNA polymerase Radioactivity ([4]; [EMO] 80 μg/ml): 33,000 cpm
- DNA-dependent RNA polymerase % Inhibition ([4]; [EMO] 160 μg/ml): −1%
- DNA-dependent RNA polymerase Radioactivity ([4]; [EMO] 160 μg/ml): 32,800 cpm
- DNA-dependent RNA polymerase % Inhibition ([4]; [EMO] 320 μg/ml): 0.5%
- DNA-dependent RNA polymerase Radioactivity ([4]; [EMO] 320 μg/ml): 32,400 cpm
